≈ marks a conversion by molar mass, not a printed value.
Assays:
[1] = Isoelectric point (pI) by isoelectrofocusing with bioautography detection; type: physicochemical; details: IEF technique, polyacrylamide gel
Description: The isoelectrofocusing (IEF) technique coupled with bioautography detection has been used for the determination of the pI of representative compounds of the invention using the following materials: AMPHOLINE carrier ampholytes (40% w/v) were purchased from LKB Produketer AB, Bromma, Sweden. Acrylamide, N,N'-methylenbisacrylamide (BIS), N,N,N',N'-tetramethylethylenediamine (TEMED) and ammonium persulfate were from Bio Rad Laboratorie, Richmond, Calif., USA. Glycerol and Antibiotic agar N. 1 (Grove and Randall medium N. 1) were from E. Merck Darmstadt FRG. GEL FIX polyester sheets were purchased from Serva Feinbiochemica Heidelberg. Phenolindo (2,6-dichlorophenol) came from BDH Chemicals Ltd. Poole, England.
IEF was made on gel slab using a LKB MULITPHOR 2117 cell and a Bio-Rad Power Supply Model 1420A. Slabs of 24.5×11.5 cm and 1 mm thickness were prepared on a sheet of GEL FIX. Polyacrylamide gels with a concentration of 8% T and with a cross-linkage of 4% C (30% T stock solution was prepared by dissolving 28.8 g of acrylamide and 1.2 g of bis-acrylamide in 100 ml distilled water), glycerol, 3.5% v/v, 2% AMPHOLINE, 0.05% ammonium persulphate as catalyst and 0.05% TEMED as accelerator. The carrier ampholite composition for 35 ml gelling solution was as follows:
The electrode solutions, as recommended by LKB for the respective pH range, were:
The gel was cooled to 4° C. with the aid of a LKB 2209 refrigerated constant temperature circulator. After prefocusing for 30 min. at 5 W, the samples (20 μl containing 0.2 to 2.5 μg of antibiotic) were loaded into the slot at the cathodic side. Electrofocusing was performed using 10 W constant power and was completed after 3-31/2 hours with a final potential of 1400 V.
The pH values were determined by dividing a portion of the gel into 1 cm sections, and eluting the individual pieces at room temperature with 1 ml of 10 mM KCl prior to pH readings.
The isoelectric point of each antibiotic was determined by interpolation on a curve obtained by plotting pH values versus the distance from the anode.
Polyacrylamide gel was placed on a 3 mm layer of agar medium N. 1 inoculated with 1% of Bacillus subtilis ATCC 6633 spore (0.5 OD at 600 nm). After 10 min the gel was removed and the plate was incubated overnight at 37° C. and examined for inhibition zones. The contrast between the area of lysis and that of bacterial growth was enhanced by use of Phenolindo(2,6-dichlorophenol) 1% w/v (oxidation-reduction indicator).

S. pyogenes L 49 = assay: In vivo test in mice experimentally infected with S. pyogenes L 49 (ED50); details: mice infected with S. pyogenes L 49; for ED50, route of administration os.: oral
S. pyogenes C 203 = assay: In vitro antibacterial activity, standard agar-dilution test (MIC); type: cell-based; details: inoculum about 10^4 CFU/ml, 18-24 h at 37° C.
Method: (§1) The culture medium ISOSENSITEST BROTH (Oxoid) and the colture medium TODD-[…] BROTH (Difco) are used for growing staphylococci and streptococci, respectively. Broth cultures are diluted so that the final inoculum is about 10^4 colony forming units/ml (CFU/ml).

[2] = tested on: S. epidermidis ATCC 12228; assay: as above; type: cell-based; details: inoculum about 10^4 CFU/ml, 18-24 h at 37° C.
Method: as §1

S. aureus Tour = assay: as above; type: cell-based; details: inoculum about 10^4 CFU/ml, 18-24 h at 37° C.
Method: as §1

[3] = tested on: Proteus vulgaris X 19H ATCC 881; assay: as above; type: cell-based; details: inoculum about 10^4 CFU/ml, 18-24 h at 37° C.
Method: as §1

E. coli SKF 12140 = assay: as above; type: cell-based; details: inoculum about 10^4 CFU/ml, 18-24 h at 37° C.
Method: as §1

S. pneumoniae UC 41 = assay: as above; type: cell-based; details: inoculum about 10^4 CFU/ml, 18-24 h at 37° C.
Method: as §1

[4] = tested on: Pseudomonas aeruginosa ATCC 10145; assay: as above; type: cell-based; details: inoculum about 10^4 CFU/ml, 18-24 h at 37° C.
Method: as §1

S. faecalis ATCC 7080 = assay: as above; type: cell-based; details: inoculum about 10^4 CFU/ml, 18-24 h at 37° C.
Method: as §1

Row | SMILES | Isoelectric point (pI) [1] | ED50, route of administration os. (S. pyogenes L 49) [mg/kg] | ED50, route of administration s.c (S. pyogenes L 49) [mg/kg] | MIC S. pyogenes C 203 (S. pyogenes C 203) [µg/mL] | MIC S. epidermidis ATCC 12228 [2] [µg/mL] | MIC S. aureus Tour (S. aureus Tour) [µg/mL] | MIC Proteus vulgaris X 19H ATCC 881 [3] [µg/mL] | MIC E. coli SKF 12140 (E. coli SKF 12140) [µg/mL] | MIC S. pneumoniae UC 41 (S. pneumoniae UC 41) [µg/mL] | MIC Pseudomonas aeruginosa ATCC 10145 [4] [µg/mL] | MIC S. faecalis ATCC 7080 (S. faecalis ATCC 7080) [µg/mL]
1 | CCCCCN(CCCCC)CCCNC(=O)C1NC(=O)C2NC(=O)C(NC(=O)C3NC(=O)C4NC(=O)C(Cc5ccc(c(Cl)c5)Oc5cc3cc(c5O)Oc3ccc(cc3Cl)C2OC2OC(CO)C(O)C(O)C2NC(C)=O)NC(=O)C(N)c2ccc(O)c(c2)Oc2cc(O)cc4c2)c2ccc(O)c(c2)-c2c(OC3OC(CO)C(O)C(O)C3O)cc(O)cc21 (stereo not shown) [Compound 43] | 8.7 |  |  |  |  |  |  |  |  |  | 
2 | CCCCCCN(CCCCCC)CCCNC(=O)C1NC(=O)C2NC(=O)C(NC(=O)C3NC(=O)C4NC(=O)C(Cc5ccc(c(Cl)c5)Oc5cc3cc(c5O)Oc3ccc(cc3Cl)C2OC2OC(CO)C(O)C(O)C2NC(C)=O)NC(=O)C(N)c2ccc(O)c(c2)Oc2cc(O)cc4c2)c2ccc(O)c(c2)-c2c(OC3OC(CO)C(O)C(O)C3O)cc(O)cc21 (stereo not shown) [Compound 44] | 8.7 |  |  |  |  |  |  |  |  |  | 
3 | COC(=O)CNC(=O)C1NC(=O)C2NC(=O)C(NC(=O)C3NC(=O)C4NC(=O)C(Cc5ccc(c(Cl)c5)Oc5cc3cc(c5O)Oc3ccc(cc3Cl)C2OC2OC(CO)C(O)C(O)C2NC(C)=O)NC(=O)C(N)c2ccc(O)c(c2)Oc2cc(O)cc4c2)c2ccc(O)c(c2)-c2c(OC3OC(CO)C(O)C(O)C3O)cc(O)cc21 (stereo not shown) [Compound 47] | 7.8 |  |  |  |  |  |  |  |  |  | 
4 | CC(=O)NC1C(OC2c3ccc(c(Cl)c3)Oc3cc4cc(c3O)Oc3ccc(cc3Cl)CC3NC(=O)C(N)c5ccc(O)c(c5)Oc5cc(O)cc(c5)C(NC3=O)C(=O)NC4C(=O)NC3C(=O)NC2C(=O)NC(C(=O)NCC(=O)O)c2cc(O)cc(O)c2-c2cc3ccc2O)OC(CO)C(O)C1O (stereo not shown) [Compound 56] | 5.8 |  |  |  |  |  |  |  |  |  | 
5 | CCCCCCN(CCCCCC)CCCNC(=O)C1NC(=O)C2NC(=O)C(NC(=O)C3NC(=O)C4NC(=O)C(Cc5ccc(c(Cl)c5)Oc5cc3cc(c5O)Oc3ccc(cc3Cl)C2O)NC(=O)C(N)c2ccc(O)c(c2)Oc2cc(O)cc4c2)c2ccc(O)c(c2)-c2c(O)cc(O)cc21 (stereo not shown) [Compound 62] | 8.6 |  |  |  |  |  |  |  |  |  | 
6 | NC1C(=O)NC2Cc3ccc(c(Cl)c3)Oc3cc4cc(c3O)Oc3ccc(cc3Cl)C(O)C3NC(=O)C(NC(=O)C4NC(=O)C(NC2=O)c2cc(O)cc(c2)Oc2cc1ccc2O)c1ccc(O)c(c1)-c1c(O)cc(O)cc1C(C(=O)NCC(=O)O)NC3=O (stereo not shown) [Compound 65] | 5.8 |  |  |  |  |  |  |  |  |  | 
7 | CCN1CCCC1CNC(=O)C1NC(=O)C2NC(=O)C(NC(=O)C3NC(=O)C4NC(=O)C(Cc5ccc(c(Cl)c5)Oc5cc3cc(c5O)Oc3ccc(cc3Cl)C2O)NC(=O)C(N)c2ccc(O)c(c2)Oc2cc(O)cc4c2)c2ccc(O)c(c2)-c2c(O)cc(O)cc21.Cl.Cl (stereo not shown) [Compound 79] |  | > 300 | 1.25 | 0.06 | 0.06 | 0.06 | 32 | 4 | 0.06 | 64 | 0.12
8 | CN(C)CCN(C)C(=O)C1NC(=O)C2NC(=O)C(NC(=O)C3NC(=O)C4NC(=O)C(Cc5ccc(c(Cl)c5)Oc5cc3cc(c5O)Oc3ccc(cc3Cl)C2O)NC(=O)C(N)c2ccc(O)c(c2)Oc2cc(O)cc4c2)c2ccc(O)c(c2)-c2c(O)cc(O)cc21 (stereo not shown) [Compound 93] |  | > 300 | 1.25 | 0.06 (≈ 0.0468 µM) | 0.06 (≈ 0.0468 µM) | 0.06 (≈ 0.0468 µM) | 64 (≈ 49.9 µM) | 8 (≈ 6.23 µM) | 0.06 (≈ 0.0468 µM) | 64 (≈ 49.9 µM) | 0.12 (≈ 0.0935 µM)
9 | CN(C)CCNC(=O)C1NC(=O)C2NC(=O)C(NC(=O)C3NC(=O)C4NC(=O)C(Cc5ccc(c(Cl)c5)Oc5cc3cc(c5O)Oc3ccc(cc3Cl)C2O)NC(=O)C(N)c2ccc(O)c(c2)Oc2cc(O)cc4c2)c2ccc(O)c(c2)-c2c(O)cc(O)cc21.Cl.Cl (stereo not shown) [Compound 94] |  | > 300 | 1.25 | 0.06 | 0.06 | 0.06 | 32 | 4 | 0.06 | 16 | 0.12
10 | CN(C)CCCCNC(=O)C1NC(=O)C2NC(=O)C(NC(=O)C3NC(=O)C4NC(=O)C(Cc5ccc(c(Cl)c5)Oc5cc3cc(c5O)Oc3ccc(cc3Cl)C2O)NC(=O)C(N)c2ccc(O)c(c2)Oc2cc(O)cc4c2)c2ccc(O)c(c2)-c2c(O)cc(O)cc21.O=C(O)C(F)(F)F.O=C(O)C(F)(F)F (stereo not shown) [Compound 97] |  | > 300 | 0.54 | 0.06 | 0.06 | 0.12 | 32 | 8 | 0.12 | 32 | 0.12
11 | NCCCCNC(=O)C1NC(=O)C2NC(=O)C(NC(=O)C3NC(=O)C4NC(=O)C(Cc5ccc(c(Cl)c5)Oc5cc3cc(c5O)Oc3ccc(cc3Cl)C2O)NC(=O)C(N)c2ccc(O)c(c2)Oc2cc(O)cc4c2)c2ccc(O)c(c2)-c2c(O)cc(O)cc21 (stereo not shown) [Compound 99] |  |  |  | 0.06 (≈ 0.0473 µM) | 0.06 (≈ 0.0473 µM) | 0.06 (≈ 0.0473 µM) | 32 (≈ 25.2 µM) | 8 (≈ 6.3 µM) | 0.12 (≈ 0.0946 µM) | 32 (≈ 25.2 µM) | 0.12 (≈ 0.0946 µM)
12 | NCCCCCCNC(=O)C1NC(=O)C2NC(=O)C(NC(=O)C3NC(=O)C4NC(=O)C(Cc5ccc(c(Cl)c5)Oc5cc3cc(c5O)Oc3ccc(cc3Cl)C2O)NC(=O)C(N)c2ccc(O)c(c2)Oc2cc(O)cc4c2)c2ccc(O)c(c2)-c2c(O)cc(O)cc21 (stereo not shown) [Compound 102] |  |  |  | 0.06 (≈ 0.0463 µM) | 0.06 (≈ 0.0463 µM) | 0.06 (≈ 0.0463 µM) | 64 (≈ 49.3 µM) | 4 (≈ 3.08 µM) | 0.06 (≈ 0.0463 µM) | 64 (≈ 49.3 µM) | 0.12 (≈ 0.0925 µM)
13 | CCCCOC(=O)C(CCCNC(=N)N)NC(=O)C1NC(=O)C2NC(=O)C(NC(=O)C3NC(=O)C4NC(=O)C(Cc5ccc(c(Cl)c5)Oc5cc3cc(c5O)Oc3ccc(cc3Cl)C2O)NC(=O)C(N)c2ccc(O)c(c2)Oc2cc(O)cc4c2)c2ccc(O)c(c2)-c2c(O)cc(O)cc21 (stereo not shown) [Compound 103] |  |  |  | 0.5 (≈ 0.354 µM) | 0.5 (≈ 0.354 µM) | 2 (≈ 1.42 µM) | > 128 | 64 (≈ 45.4 µM) | 0.5 (≈ 0.354 µM) | 128 (≈ 90.7 µM) | 1 (≈ 0.709 µM)
